Reference: patent US6919306B2, “Method of skin care” (Yaizu Suisankagaku Industry Co. Ltd., priority 1999, dated 2005)

Legend:
[1] = system: oil and fat content of skin; assay: Skin oil and fat content by Sebumeter SM810; assay type: in vivo, human; conditions: for Oil and fat content, Below left eye: NAG 1,000 mg/day oral
Protocol: To 22 females usually having a tendency of xeroderma and rough skin (average age: 25.5±10.7), a double blind long-term ingestion study was carried out in the following manners provided that a […] were given to a control group.
NAG-containing tablets-administered group (NAG group, n=11): Tablets prepared similarly as in Example 1 as described below (NAG amount: 200 mg/tablet), were ingested at a rate of 5 tablets/day (NAG 1,000 mg/day, as a daily dose).
The ingestion period was 8 weeks in each group. The inspection was in principle carried out just before the start of ingestion, 4 weeks after the start of ingestion, and just before the completion of ingestion (8 weeks after the start of ingestion).
The oil and fat content was measured by using Sebumeter SM810 (manufactured by Courage+Khazaka Electronic Gmbh). In use of this apparatus, a special tape which absorbs only the oil and fat content is attached to the measurement site for 30 seconds and the oil and fat content is measured by the change of light transmittance of the tape. This apparatus is known not to be affected by humidity, etc.
Measurement sites were 1 cm below the left eye, medial part of left upper arm (3 cm above the elbow), and poll (3 cm below spinous process of neck). With respect to the oil and fat content, since most subjects were scored at 0 at the left upper arm and the poll, only the site below the left eye was measured from the 2nd inspection.
In order to keep the environments for the measurements as equal as possible, a room having its internal conditions adjusted to be constant was prepared before the measurements (room temperature: 18 to 20° C., humidity: 45 to 60%), and the subjects were asked to keep in rest in this room for at least 30 minutes. Further, with respect to the makeup at the measurement site, it was in principle prohibited to put on makeup from 60 minutes before the inspection.

[2] = NAG kinetics study with 14C labelled NAG; assay type: in vivo; conditions: rats, single forced oral 250 mg/kg of body weight
Protocol: A mixture of ^14C labelled NAG (1 st-position carbon atom-labelled product: manufactured by Amasham Life Science Co.) and unlabelled NAG (the one prepared in PREPARATION EXAMPLE 1) was given to rats by single forced oral administration (250 mg/kg of body weight) for in vivo kinetics study. […] About 60% of the administered NAG was utilized as an energy source and excreted as CO2 to expiration. Further, about 20% was excreted to urine and stool.

[3] = Heat treatment stability (coloration or decomposition); assay type: physicochemical; conditions: pH of 2 to 8 at 100° C. for 1 hour
Source text: In the present invention, as a carrier for the skin care agent, foods such as confectioneries, powdered soups, dairy products and beverages, may, for example, be mentioned. As such foods, specifically, gum, candies, tabletted confectioneries, chocolate, jelly, cookies, snacks, corn potage soup, consomme soup, milk, pudding, yogurt, ice cream, lactic acid beverages, alcohol beverages, vitamin beverages, mineral beverages, coffee beverages, near water, nutrition drinks, and the like, may be mentioned.

SMILES: CC(=O)N[C@H]1C(O)O[C@H](CO)[C@@H](O)[C@@H]1O (stereo partly drawn) [NAG, N-acetylglucosamine]
- Oil and fat content, Below left eye ([1]; after 4 weeks): 53.0 ± 29.2
- Oil and fat content, Below left eye ([1]; after 8 weeks, p < 0.05): 40.8 ± 18.7
- Oil and fat content, Below left eye ([1]; before ingestion): 63.8 ± 42.3
- oil and fat content, change ([1]; NAG group, 1,000 mg/day oral, 8 weeks): significant decrease
- absorption after oral administration [2]: rapidly absorbed
- share excreted to urine and stool [2]: about 20%
- time at which average concentration of radioactivity in blood reached the maximum value [2]: 4 h
- residual transferred to tissues (e.g. cartilaginous and fatty tissues) ([2]; autoradiography and tissue radioactivity): about 20%
- coloration or decomposition on heat treatment [3]: not to show coloration or decomposition
